Measured values as given in ChEMBL document CHEMBL1201862, “PubChem BioAssay data set” (2004).
Values joined by “and” are separate entries in the source; they are usually repeats but may differ in a detail not shown here. Equal values may be shown once. Active and inactive are the calls of the source.

Key:
[1] = target: Protein-tyrosine kinase 2-beta (Homo sapiens, UniProt Q14289);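 further: potency of inhibitors of PYK2 kinase phosphorylation of poly-GT substrate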
Genome polyprotein = target: T1, Genome polyprotein (Hepatitis C virus, UniProt Q2Q167); experiment: disruption of hepatitis C core self-association – biochemical, TR-FRET, dose response (AID 2159); design: species or system Hepacivirus hominis;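 further: blocks dimerization of HCV core protein measured by TR-FRET between tagged core106 pairs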
T1 sequence (Q2Q167 whole entry): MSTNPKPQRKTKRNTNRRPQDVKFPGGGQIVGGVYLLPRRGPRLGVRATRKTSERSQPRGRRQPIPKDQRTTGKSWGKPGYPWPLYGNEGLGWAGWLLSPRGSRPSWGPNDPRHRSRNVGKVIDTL

SUMO E1/E2 = SUMO E1/E2 (Homo sapiens, UniProt P63279+Q9UBE0+Q9UBT2); experiment: SAR analysis of SUMOylation using HTRF in an in-Vitro dose response assay. [Related pubchem assays (depositor defined):AID2006, AID2011, AID2018, AID2069, AID2658]; format: functional
Sequence of SUMO E1/E2 (Q9UBE0 whole entry): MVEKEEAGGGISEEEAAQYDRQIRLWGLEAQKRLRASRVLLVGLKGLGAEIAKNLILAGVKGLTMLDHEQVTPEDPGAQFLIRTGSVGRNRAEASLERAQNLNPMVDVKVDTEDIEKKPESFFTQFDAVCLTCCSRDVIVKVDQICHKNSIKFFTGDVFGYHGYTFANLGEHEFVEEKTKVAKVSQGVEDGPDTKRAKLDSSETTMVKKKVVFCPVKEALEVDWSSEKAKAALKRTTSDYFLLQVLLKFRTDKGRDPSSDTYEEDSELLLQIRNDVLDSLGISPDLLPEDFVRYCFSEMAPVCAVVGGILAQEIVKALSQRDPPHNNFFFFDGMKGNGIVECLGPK
Sequence of SUMO E1/E2 (Q9UBT2 whole entry): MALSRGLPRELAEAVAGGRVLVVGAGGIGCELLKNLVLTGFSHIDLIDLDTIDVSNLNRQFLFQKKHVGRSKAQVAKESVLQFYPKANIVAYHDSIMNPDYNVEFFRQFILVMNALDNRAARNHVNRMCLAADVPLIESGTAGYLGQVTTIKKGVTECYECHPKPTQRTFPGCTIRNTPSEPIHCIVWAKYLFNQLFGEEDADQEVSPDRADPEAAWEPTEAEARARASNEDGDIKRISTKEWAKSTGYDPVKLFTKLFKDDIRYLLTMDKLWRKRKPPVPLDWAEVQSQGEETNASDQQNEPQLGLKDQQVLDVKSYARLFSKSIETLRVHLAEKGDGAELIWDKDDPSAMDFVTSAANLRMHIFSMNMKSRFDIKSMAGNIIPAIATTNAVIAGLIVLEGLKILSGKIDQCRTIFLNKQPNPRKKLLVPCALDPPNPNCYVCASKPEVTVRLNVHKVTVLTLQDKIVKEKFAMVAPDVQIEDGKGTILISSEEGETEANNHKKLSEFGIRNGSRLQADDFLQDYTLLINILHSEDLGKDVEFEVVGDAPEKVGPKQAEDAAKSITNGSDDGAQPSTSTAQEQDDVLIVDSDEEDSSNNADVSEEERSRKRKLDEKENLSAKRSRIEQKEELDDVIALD
Sequence of SUMO E1/E2 (P63279 whole entry): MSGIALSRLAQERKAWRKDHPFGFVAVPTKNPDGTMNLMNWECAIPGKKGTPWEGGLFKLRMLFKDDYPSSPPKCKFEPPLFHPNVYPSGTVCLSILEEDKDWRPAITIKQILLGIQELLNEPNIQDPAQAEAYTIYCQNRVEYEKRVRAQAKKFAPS

[2] = target: T2, Voltage-gated N-type calcium channel alpha-1B subunit/Amyloid beta A4 precursor protein-binding family A member 1 (Homo sapiens, UniProt Q00975+Q02410); experiment: disruptors of Mint-PDZ/N-type channel peptide interaction – biochemical, HTRF, SAR follow-up (AID 2489); format: functional
T2 sequence (Q00975 whole entry): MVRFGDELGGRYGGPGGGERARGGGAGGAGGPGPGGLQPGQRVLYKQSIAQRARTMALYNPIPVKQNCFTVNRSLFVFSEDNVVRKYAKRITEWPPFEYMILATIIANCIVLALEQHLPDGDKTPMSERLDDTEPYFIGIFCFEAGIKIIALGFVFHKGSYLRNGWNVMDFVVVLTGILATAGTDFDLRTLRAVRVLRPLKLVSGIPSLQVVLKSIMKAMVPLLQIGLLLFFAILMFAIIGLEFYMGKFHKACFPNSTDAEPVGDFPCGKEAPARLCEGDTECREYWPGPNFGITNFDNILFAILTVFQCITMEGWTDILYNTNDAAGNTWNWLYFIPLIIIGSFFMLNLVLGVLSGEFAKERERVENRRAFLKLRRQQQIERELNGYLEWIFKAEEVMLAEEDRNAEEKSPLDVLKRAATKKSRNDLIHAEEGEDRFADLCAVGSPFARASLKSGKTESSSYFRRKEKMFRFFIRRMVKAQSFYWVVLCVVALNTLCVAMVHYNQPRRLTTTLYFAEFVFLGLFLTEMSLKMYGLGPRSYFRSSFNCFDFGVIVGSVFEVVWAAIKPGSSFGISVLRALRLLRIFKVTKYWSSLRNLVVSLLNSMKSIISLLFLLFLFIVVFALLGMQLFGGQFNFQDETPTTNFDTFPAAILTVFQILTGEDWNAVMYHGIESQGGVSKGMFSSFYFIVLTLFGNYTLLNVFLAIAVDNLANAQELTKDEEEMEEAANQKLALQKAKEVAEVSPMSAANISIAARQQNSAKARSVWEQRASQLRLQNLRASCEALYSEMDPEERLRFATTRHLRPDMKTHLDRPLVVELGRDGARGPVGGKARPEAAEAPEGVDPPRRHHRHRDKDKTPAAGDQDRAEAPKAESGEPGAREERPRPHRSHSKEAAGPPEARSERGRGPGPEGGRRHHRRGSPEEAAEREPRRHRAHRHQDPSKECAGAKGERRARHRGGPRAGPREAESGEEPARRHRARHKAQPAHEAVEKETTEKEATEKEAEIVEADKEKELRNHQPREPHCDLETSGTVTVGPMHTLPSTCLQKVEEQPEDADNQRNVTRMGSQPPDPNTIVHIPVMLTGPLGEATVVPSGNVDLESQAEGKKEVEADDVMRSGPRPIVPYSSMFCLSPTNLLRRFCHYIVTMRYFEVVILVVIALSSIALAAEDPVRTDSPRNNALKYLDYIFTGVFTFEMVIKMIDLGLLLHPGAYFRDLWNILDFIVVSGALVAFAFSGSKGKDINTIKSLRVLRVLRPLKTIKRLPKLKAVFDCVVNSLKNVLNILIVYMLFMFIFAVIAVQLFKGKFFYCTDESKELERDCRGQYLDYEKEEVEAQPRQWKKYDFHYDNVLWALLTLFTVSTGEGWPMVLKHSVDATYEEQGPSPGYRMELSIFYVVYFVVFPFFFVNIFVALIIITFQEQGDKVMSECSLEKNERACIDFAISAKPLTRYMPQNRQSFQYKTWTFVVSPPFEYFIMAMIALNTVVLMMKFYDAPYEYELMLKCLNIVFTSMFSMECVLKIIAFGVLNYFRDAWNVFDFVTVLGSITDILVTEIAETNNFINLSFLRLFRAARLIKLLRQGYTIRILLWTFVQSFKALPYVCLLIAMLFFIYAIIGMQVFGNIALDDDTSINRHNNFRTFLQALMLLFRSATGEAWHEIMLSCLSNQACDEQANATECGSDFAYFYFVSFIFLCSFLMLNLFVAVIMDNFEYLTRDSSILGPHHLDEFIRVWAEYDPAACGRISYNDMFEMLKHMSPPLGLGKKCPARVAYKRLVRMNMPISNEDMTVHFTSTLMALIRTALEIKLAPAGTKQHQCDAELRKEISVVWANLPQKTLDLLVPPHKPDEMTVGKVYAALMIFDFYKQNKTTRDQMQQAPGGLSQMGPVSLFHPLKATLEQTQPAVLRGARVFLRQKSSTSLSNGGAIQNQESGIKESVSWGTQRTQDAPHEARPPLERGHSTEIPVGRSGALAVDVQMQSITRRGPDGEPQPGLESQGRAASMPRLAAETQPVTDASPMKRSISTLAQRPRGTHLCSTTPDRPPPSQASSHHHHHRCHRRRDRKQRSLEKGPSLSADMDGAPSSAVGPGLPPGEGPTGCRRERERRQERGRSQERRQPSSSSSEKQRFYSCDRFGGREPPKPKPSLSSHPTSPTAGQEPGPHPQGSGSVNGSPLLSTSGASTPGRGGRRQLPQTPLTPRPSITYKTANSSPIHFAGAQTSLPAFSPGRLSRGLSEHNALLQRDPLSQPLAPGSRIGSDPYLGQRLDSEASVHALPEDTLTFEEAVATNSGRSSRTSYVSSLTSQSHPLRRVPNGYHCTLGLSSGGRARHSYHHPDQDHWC
T2 sequence (Q02410 whole entry): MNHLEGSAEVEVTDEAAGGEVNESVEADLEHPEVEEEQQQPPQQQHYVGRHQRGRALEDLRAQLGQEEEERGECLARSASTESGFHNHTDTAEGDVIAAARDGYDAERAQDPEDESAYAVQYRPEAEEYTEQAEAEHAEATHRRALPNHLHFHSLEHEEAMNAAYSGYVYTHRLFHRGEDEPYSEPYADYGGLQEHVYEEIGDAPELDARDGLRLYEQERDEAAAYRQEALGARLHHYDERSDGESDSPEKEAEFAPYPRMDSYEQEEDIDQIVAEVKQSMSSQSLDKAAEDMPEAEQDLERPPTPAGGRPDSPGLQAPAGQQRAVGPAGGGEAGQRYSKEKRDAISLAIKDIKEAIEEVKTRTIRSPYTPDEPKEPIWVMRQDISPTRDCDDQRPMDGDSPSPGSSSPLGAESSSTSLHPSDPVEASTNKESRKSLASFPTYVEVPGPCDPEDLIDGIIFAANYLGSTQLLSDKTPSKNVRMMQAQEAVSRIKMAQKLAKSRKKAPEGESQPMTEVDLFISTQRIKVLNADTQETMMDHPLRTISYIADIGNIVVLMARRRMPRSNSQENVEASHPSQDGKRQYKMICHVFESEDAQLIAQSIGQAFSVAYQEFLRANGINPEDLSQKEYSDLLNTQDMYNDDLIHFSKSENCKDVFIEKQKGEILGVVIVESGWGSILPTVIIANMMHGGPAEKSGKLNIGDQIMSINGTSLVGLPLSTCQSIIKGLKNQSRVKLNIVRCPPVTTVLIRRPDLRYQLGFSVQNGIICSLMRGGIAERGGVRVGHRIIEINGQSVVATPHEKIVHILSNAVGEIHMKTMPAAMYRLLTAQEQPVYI

[3] = target: T2, Voltage-gated N-type calcium channel alpha-1B subunit/Amyloid beta A4 precursor protein-binding family A member 1; format: protein assay
[4] = target: T3, Probable nicotinate-nucleotide adenylyltransferase (Staphylococcus aureus (strain N315), UniProt P65502); format: functional, Staphylococcus aureus subsp. aureus N315; conditions: read-out: IC50_Mean;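 on IC50 Mean: confirmatory dose-response retesting of NadD inhibitor hits first found in an ultra-high-throughput screen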
T3 sequence (P65502 whole entry): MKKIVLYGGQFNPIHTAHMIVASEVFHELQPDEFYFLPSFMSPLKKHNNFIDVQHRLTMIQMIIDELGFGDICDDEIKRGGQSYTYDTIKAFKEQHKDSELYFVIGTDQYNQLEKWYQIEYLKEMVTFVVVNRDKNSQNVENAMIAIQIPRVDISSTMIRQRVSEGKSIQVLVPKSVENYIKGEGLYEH

[5] = target: T2, Voltage-gated N-type calcium channel alpha-1B subunit/Amyloid beta A4 precursor protein-binding family A member 1; format: protein assay; remark: listed apart in the source
Protein Rev = Protein Rev (Human immunodeficiency virus type 1 group M subtype B (isolate WMJ22)(HIV-1), UniProt P05866); experiment: inhibitors of Rev protein–RRE RNA complex – biochemical, protein-RNA interaction, dose response (AID 842); design: species or system Human immunodeficiency virus 1
[6] = target: T4, Induced myeloid leukemia cell differentiation protein Mcl-1 (Homo sapiens, UniProt Q07820); format: functional
[7] = target: T3, Probable nicotinate-nucleotide adenylyltransferase; format: functional, Staphylococcus aureus subsp. aureus N315
[8] = target: T4, Induced myeloid leukemia cell differentiation protein Mcl-1; experiment: blockers of MCL1 binding to BIM peptide – biochemical, fluorescence polarization, BIM-BH3 peptide, 1536-well, dose response (AID 2217)
Bcl-2-like protein 1 = Bcl-2-like protein 1 (Homo sapiens, UniProt Q07817); experiment: blockers of BCLXL peptide binding – biochemical, fluorescence polarization, 1536-well, selectivity assay for MCL1 inhibitor project, dose response (AID 2218)
[9] = target: DNA (cytosine-5)-methyltransferase 1 (Homo sapiens, UniProt P26358); experiment: inhibition of DNA methylation by DNMT1 – biochemical, fluorescent molecular beacon, confirmation (AID 602386); format: functional
[10] = target: T2, Voltage-gated N-type calcium channel alpha-1B subunit/Amyloid beta A4 precursor protein-binding family A member 1; experiment: disruptors of Mint-PDZ/N-type channel peptide interaction – biochemical, HTRF, set 2, SAR follow-up (AID 434980); format: functional
[11] = T. cruzi infection blockers in NIH3T3 cells – beta-gal luminescence, NIH3T3 host cells, confirmation (AID 2630); format: functional, cell-based; conditions: Mus musculus
[12] = Luminescence Cell-Based Secondary HTS screen to identify cytotoxic compounds of NIH3T3 cells. [Related pubchem assays: 1885, 1968 ]; format: functional
[13] = Trypanosoma cruzi growth suppression in host cells – NIH3T3 host cells, beta-gal luminescence, confirmation (AID 2044); format: functional, cell-based;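 further: intracellular parasites grown in NIH/3T3 mouse fibroblasts as host cells; luminescent beta-galactosidase reporter signal from transgenic T. cruzi replicating inside host cells; inhibitors lower the luminescence signal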
[14] = Luminescence Cell-Based/Microorganism Confirmation at Dose of Inhibitors of Trypanosoma cruzi Infection. [Related pubchem assays: 1885, 1968 ]; format: functional
[15] = NIH3T3 cell viability loss – ATP luminescence, mouse fibroblasts, counter-screen, dose response (AID 2010); format: functional, cell-based;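 further: cells exposed to compound for about 90 hours before reading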
Streptococcus = experiment: GAS UMAA2166 growth inhibition – luminescence, BacTiterGlo, counter-screen for streptokinase expression inhibitor project, dose response (AID 1915); format: functional, organism-based;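 further: potency for reduction of bacterial viability or growth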
[16] = target: T5, Alkaline phosphatase, tissue-nonspecific isozyme (Homo sapiens, UniProt P05186); experiment: activation of tissue-nonspecific alkaline phosphatase – biochemical, TNAP isozyme, human IAP uHTS hits, selectivity assay for human IAP activator project, dose response (AID 488886); format: functional;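 further: potency of compounds raising TNAP activity as a selectivity check on IAP activators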
T5 sequence (P05186 whole entry): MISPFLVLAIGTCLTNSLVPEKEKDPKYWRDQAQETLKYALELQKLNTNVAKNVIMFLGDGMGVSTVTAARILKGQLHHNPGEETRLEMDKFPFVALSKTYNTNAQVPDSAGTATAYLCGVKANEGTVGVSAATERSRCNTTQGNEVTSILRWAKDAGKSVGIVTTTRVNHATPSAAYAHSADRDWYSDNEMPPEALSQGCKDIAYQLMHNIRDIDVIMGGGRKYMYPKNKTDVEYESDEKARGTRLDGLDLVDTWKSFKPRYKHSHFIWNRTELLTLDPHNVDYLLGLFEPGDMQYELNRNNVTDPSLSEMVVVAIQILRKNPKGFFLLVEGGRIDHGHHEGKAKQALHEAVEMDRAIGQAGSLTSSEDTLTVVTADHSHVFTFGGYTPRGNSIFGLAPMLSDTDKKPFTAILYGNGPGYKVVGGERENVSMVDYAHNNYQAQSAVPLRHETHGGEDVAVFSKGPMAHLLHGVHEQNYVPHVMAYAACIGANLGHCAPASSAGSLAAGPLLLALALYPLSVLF

[17] = target: T6, Intestinal-type alkaline phosphatase (Homo sapiens, UniProt P09923); experiment: human intestinal alkaline phosphatase activators, dose response, biochemical, luminescence, uHTS hits (AID 463120); format: functional
T6 sequence (P09923 whole entry): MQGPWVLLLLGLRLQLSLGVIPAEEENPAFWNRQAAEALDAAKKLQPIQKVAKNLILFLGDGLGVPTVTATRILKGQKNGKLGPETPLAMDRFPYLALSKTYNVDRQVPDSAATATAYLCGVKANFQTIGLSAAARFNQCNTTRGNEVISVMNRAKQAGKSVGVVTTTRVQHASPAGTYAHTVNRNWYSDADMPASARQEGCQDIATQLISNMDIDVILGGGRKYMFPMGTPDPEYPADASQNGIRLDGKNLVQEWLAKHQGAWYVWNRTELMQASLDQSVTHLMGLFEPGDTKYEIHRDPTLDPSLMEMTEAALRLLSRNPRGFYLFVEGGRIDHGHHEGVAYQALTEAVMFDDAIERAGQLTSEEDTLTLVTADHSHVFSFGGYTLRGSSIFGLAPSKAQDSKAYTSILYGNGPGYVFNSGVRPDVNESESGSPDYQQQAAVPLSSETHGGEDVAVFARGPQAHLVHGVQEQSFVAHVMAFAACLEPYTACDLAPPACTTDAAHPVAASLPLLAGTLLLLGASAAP

[18] = tested on: Streptococcus sp. 'group A'; experiment: Streptococcus pyogenes SK(-)GAS viability under kanamycin – luminescence, BacTiterGlo, confirmation, counter-screen for streptokinase expression inhibitor project, dose response (AID 1900); format: functional, organism-based
[19] = fluconazole-exposed Candida albicans growth modulators – fluorescence, retest, confirmation (AID 2467); format: functional, cell-based
[20] = target: Intestinal-type alkaline phosphatase (Mus musculus, UniProt P24822); experiment: PubChem AID 488875; format: functional
[21] = target: T6, Intestinal-type alkaline phosphatase; experiment: activation of human intestinal alkaline phosphatase – biochemical, luminescent, uHTS hits, set 2, dose response (AID 488817); format: functional;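 further: potency of activators that raise enzyme activity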
Streptokinase A = target: T7, Streptokinase A (Streptococcus pyogenes serotype M1, UniProt P10520); experiment: viability-normalized secreted streptokinase activity reduction – plasminogen activation absorbance, OD405, dose response (AID 1914); format: functional, Streptococcus pyogenes M1 GAS;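 further: secreted streptokinase activity via plasminogen activation per viability signal from cell pellet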
T7 sequence (P10520 whole entry): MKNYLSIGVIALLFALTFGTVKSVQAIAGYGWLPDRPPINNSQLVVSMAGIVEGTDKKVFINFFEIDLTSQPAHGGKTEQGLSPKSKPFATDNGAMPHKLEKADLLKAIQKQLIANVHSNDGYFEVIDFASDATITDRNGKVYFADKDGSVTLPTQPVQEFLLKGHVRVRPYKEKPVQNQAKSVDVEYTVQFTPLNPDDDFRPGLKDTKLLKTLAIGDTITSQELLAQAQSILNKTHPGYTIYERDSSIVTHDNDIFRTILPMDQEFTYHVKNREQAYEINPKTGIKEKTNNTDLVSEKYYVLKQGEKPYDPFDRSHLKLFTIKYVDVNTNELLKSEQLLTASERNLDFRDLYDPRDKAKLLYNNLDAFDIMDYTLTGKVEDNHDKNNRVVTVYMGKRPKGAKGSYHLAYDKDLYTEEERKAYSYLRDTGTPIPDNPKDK

[22] = NIH-3T3 fibroblast cytotoxicity, dose response, cytotoxicity control, cell-based, fluorescence, Alamar Blue, secondary assay (AID 2327); format: functional;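 further: NIH-3T3 mouse fibroblasts cultured with fluconazole at 8 µg/mL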
CAAX prenyl protease 2 = target: T8, CAAX prenyl protease 2 (Saccharomyces cerevisiae S288c, UniProt Q03530); format: biochemical
T8 sequence (Q03530 whole entry): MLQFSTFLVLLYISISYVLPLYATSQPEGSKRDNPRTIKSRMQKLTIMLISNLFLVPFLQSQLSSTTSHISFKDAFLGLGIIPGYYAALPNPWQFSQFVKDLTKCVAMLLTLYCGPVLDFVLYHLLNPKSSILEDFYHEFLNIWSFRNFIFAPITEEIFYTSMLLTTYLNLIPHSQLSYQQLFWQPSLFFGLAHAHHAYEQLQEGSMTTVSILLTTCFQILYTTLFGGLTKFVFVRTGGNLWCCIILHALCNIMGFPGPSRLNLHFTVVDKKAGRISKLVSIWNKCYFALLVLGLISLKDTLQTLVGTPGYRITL

Estrogen receptor = target: T9, Estrogen receptor (Homo sapiens, UniProt P03372);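 further: potency for inhibiting coactivator peptide recruitment to the receptor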
T9 sequence (P03372 whole entry): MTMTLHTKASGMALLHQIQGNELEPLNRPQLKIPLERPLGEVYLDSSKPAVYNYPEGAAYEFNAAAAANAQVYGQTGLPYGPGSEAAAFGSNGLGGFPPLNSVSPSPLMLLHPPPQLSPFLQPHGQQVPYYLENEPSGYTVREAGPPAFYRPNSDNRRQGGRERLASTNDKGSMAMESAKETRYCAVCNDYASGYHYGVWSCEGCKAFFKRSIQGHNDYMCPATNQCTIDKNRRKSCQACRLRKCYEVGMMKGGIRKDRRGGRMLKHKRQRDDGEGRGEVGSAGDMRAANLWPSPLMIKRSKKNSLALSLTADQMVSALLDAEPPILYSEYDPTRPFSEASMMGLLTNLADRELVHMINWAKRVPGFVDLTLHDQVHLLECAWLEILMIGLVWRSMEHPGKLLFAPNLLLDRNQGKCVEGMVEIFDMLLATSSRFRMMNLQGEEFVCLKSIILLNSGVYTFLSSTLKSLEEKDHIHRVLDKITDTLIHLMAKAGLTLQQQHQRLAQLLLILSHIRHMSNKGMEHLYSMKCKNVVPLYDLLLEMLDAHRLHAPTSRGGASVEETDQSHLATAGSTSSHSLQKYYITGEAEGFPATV

CAAX prenyl protease 1 = CAAX prenyl protease 1 (Saccharomyces cerevisiae S288c, UniProt P47154); experiment: yeast CAAX protease Ste24 inhibition – biochemical, S. cerevisiae, plate reader, cherry-pick, dose response (AID 488815)
[23] = target: Mitogen-activated protein kinase 10 (Homo sapiens, UniProt P53779); experiment: Dose response biochemical screening assay for inhibitors of c-Jun N-Terminal Kinase 3 (JNK3). [Related pubchem assays: 746 ]
Trypsin = Trypsin (Sus scrofa, UniProt P00761); experiment: trypsin protease activity blockade – biochemical, quenched peptide fluorescence, cherry-pick, selectivity assay for Rce1 protease inhibitor project, dose response (AID 488789)

In the case of `O=C(N/N=C/c1cccc(F)c1)c1cc(-c2ccco2)nc2ccccc12`, the IC50 [1] is reported as 2.25 µM (active), the IC50 (Genome polyprotein) is reported as > 49.8 µM (not active) and the IC50 (SUMO E1/E2) is reported as 7.16 µM (active) and 9.07 µM (active). The IC50 [2] was > 56.8 µM (inactive) and 8.96 µM (active), the IC50 [3] was 8.21 µM (active) and the IC50 [4] was 21.1 µM (active). For the same compound, the IC50 [5] was 3.18 µM (active), the IC50 (Protein Rev) was > 79.4 µM (not active) and the IC50 [6] was 1.67 µM (active). For the same compound, the IC50 [7] was 7.33 µM (active), the IC50 [8] was 7.19 µM (active) and the IC50 (Bcl-2-like protein 1) was > 109 µM (not active). The IC50 [9] was 4.81 µM (active) and the IC50 [10] was 12.9 µM (active) and 4.79 µM (active).
In the case of `CC(=O)c1cccc(CN2CCCC(CCC(=O)NCc3ccc(F)c(F)c3)C2)c1` (centres undefined), the EC50 (cells) is reported as 70 nM (active), the EC50 [11] is reported as 69 nM (active) and the EC50 [12] is reported as > 195 µM (not active). For the same compound, the EC50 [13] was < 100 nM (active), the EC50 [14] was 69 nM (active) and the EC50 [15] was > 60 µM (not active).
For `CC(C)CC(=O)NC(=S)NNC(=O)c1ccc(NC(=O)C2CCCCC2)cc1`, the EC50 (Streptococcus) was 9.89 µM (active), the EC50 [16] was 70.2 µM (active) and the EC50 [17] was 18.7 µM (active). The EC50 [18] was 517 nM (active), the EC50 [19] was 2.57 µM (active) and the EC50 [20] was 43.2 µM (active). The EC50 [21] was 58.1 µM (active), the EC50 (Streptokinase A) was > 150 µM (not active) and the EC50 [22] was 43.7 µM (active).
In the case of `O=C1c2ccccc2NC2=NCCCCN12`, the AC50 (CAAX prenyl protease 2) is reported as 31.1 µM (active), the IC50 (Estrogen receptor) is reported as > 50 µM (not active) and the AC50 (CAAX prenyl protease 1) is reported as 3.9 µM (active). For the same compound, the IC50 [23] was 39.5 µM (not active) and the AC50 (Trypsin) was 11.4 µM (active).
